Results: paper PMC7188855, “Nucleic acid recognition and antiviral activity of 1,4-substituted terphenyl compounds mimicking all faces of the HIV-1 Rev protein positively-charged α-helix” (Scientific Reports, 2020)
Where two headings read alike, the source gives them in different places.

Legend:
[1] = target: TARh hairpin containing the HIV-1 Tat-binding UCU bulge; assay: Fluorescence intensity binding to control TARh hairpin; details: for Kd(TARh)/Kd(IIBh): low ionic strength, 10 mM sodium phosphate pH 6.6, uses Kd1
From the text: To evaluate the specificity of subdomain IIB recognition, we measured binding to a control TARh hairpin containing the HIV-1 Tat-binding UCU bulge[23] (Fig. 1D). […] We further assessed specificity by duplicating the IIBh-23fl association experiments in the presence of a 10-fold molar excess of tRNA^Lys or a 26-base pair LTRd DNA duplex. The binding curves of the compounds were affected by the presence of competitive tRNA^Lys and to a lesser extent by LTRd (Figs. 4A, S4 and S5 and Tables 2 and S2).
These experiments measured association to IIBh-23fl or TARh-8fl RNA molecules labelled with fluorescein at extrahelical loop nucleotides U23 and U8, respectively (Fig. 1D), and were carried out under two different ionic conditions in a Victor X5 plate reader, using excitation and emission wavelengths of 485 and 520 nm, respectively. We also attempted to measure association to an alternative IIBh hairpin containing 2-aminopurine instead of adenine at unpaired loop IIB residue A19[21], but all terphenyls fluoresced at the excitation wavelength of this fluorophore. IIBh-23fl or TARh-8fl (at 100 nM concentration) was equilibrated for 5 minutes after each ligand addition in a buffer containing either 10 mM sodium phosphate pH 6.6 and 0.1 mM EDTA or 10 mM HEPES pH 7.5, 200 mM KCl and 2 mM MgCl2. In addition to the TARh specificity control, the RNA and DNA specificity of the IIBh interactions was assessed by duplicating the experiments in the presence of a 10-fold molar excess (1 μM) of either tRNA^Lys or DNA duplex LTRd. The equilibrium dissociation constants Kd were determined by fitting the fluorescence intensity curves with DYNAFIT[40]. We used one-site, two independent-sites and two interacting-sites binding models for all curves, and the best model was automatically selected by model discrimination analysis, except where indicated. The final graphs were plotted with Prism. All fluorescence intensity experiments were performed at least two times for each compound and condition.

[2] = target: RRE subdomain IIB (IIBh); assay: Isothermal titration calorimetry with IIBh; assay type: binding, HIV-1; details: 25 °C; 10 mM sodium phosphate pH 7.4, 0.1 mM EDTA; read-out: equilibrium dissociation constant, RRE subdomain IIB (ITC)
Procedure: These experiments were performed at 25 °C in MicroCal PEAQ-ITC or Nano-ITC microcalorimeters, and the data was subsequently analysed with MicroCal or Nanoanalyze software, respectively. All species were dissolved in aqueous solutions containing 10 mM sodium phosphate (pH 7.4 or 8.2) and 0.1 mM EDTA. For the IIBh:1a interaction the pH was 7.4, and 10 or 20 μM solutions of IIBh in the sample cell were titrated with 19 injections of 350 or 500 μM solutions of 1a. […]. […] For the DNAd:1a interaction, the pH was 8.2, and 800 or 900 μM solutions of 1a were titrated into 20 μM solutions of DNAd duplex in the sample cell with 19 injections of 2 µL. In both cases, the titration experiments were repeated three times, and the resulting association curves were fitted using a model with a single set of binding sites.

[3] = system: HIV-1 reverse transcription; assay: qPCR quantification of early and late HIV-1 reverse transcripts in MT-2 cells; assay type: cell-based; details: MT-2 cells infected with NL4.3 for 5 hours
Procedure: MT-2 cells were pre-treated with two different concentrations of terphenyl molecules 1a, 1d or 3c, selected on the basis of the observed RRE-Rev IC50 and cellular EC50 values, and infected with NL4.3 wild-type HIV-1 for 5 hours. Total genomic DNA was isolated with a QIAamp DNA blood mini kit (Qiagen) and quantified by spectrophotometry. Early and late viral DNAs were quantified by qPCR as previously described. qPCR was performed in triplicate in a StepOne Real-Time PCR system using standard cycling conditions. Serial dilutions of genomic DNA from the 8E5 cell line, which contain a single integrated copy of HIV-1[43], were used as standard curve. The CCR5 gene was used as an endogenous control.

[4] = system: LTRc, core region of the HIV-1 LTR promoter; assay: EMSA of association to LTRc DNA; assay type: binding; details: 20 nM LTRc duplex; 10 mM HEPES pH 7.5, 300 mM KCl, 1 mM MgCl2, 0.5 mM EDTA
Procedure: The experiments monitoring RRE-Rev inhibition utilized 78 nM full-length RRE and 1.32 μM full-length Rev dissolved in 10 mM HEPES pH 7.5, 300 mM KCl, 1 mM MgCl2 and 0.5 mM EDTA binding buffer, and increasing concentrations of each compound up to 50 μM[21],[39]. The reactions were incubated at room temperature for 20 minutes and loaded onto 8% polyacrylamide gels with TB running buffer. Gels were run at 4 °C for 1–4 hours at 150 V, and the bands were stained with SYBR gold and quantified with Quantity One 4.1 analysis software. Experiments monitoring binding to the 58-base pair HIV-1 LTRc core segment utilized 20 nM LTRc duplex dissolved in the same binding buffer, and increasing concentrations of each compound. The reactions were similarly incubated and loaded onto 20% polyacrylamide gels with TB running buffer. The gels were run at 4 °C for 3.5 hours at 150 V, and the bands were stained and quantified as described above. The specificity of LTRc association was evaluated by duplicating the experiments in the presence of a 100-fold molar excess of DNAd duplex (28-fold base-pair molar excess). In all cases, we monitored the disappearance of the band corresponding to high-order RRE-Rev complexes or free LTRc, and 50% response RC50 values were determined with Prism by fitting the data to a sigmoidal inhibitory model: I−Imin=ImaxC/1+C/RC50 where I is the intensity of the band corresponding to LTRc or high-order RRE-Rev species at compound concentration C, Imax the best-fit value for maximum intensity, and Imin the minimum intensity obtained at the highest concentration of inhibitor. All EMSA experiments were repeated three times for each compound.

[5] = system: HTLV-1 LTR promoter; assay: Transfection of pLTR(HTLV)-luc in MT-2 cells; details: Primate T-lymphotropic virus 1, MT2, 48 h, read-out: EC50 transfection HTLV LTR
Procedure: To further assess the mechanism of antiviral action of the compounds, we checked whether they also interfered with the regulatory sequences of HTLV-1, a closely related retrovirus.
MT-2 cells were transfected with plasmids containing a luciferase reporter gene whose expression was under the control of the full length proviral HIV-1 (NL4.3-luc), the HIV-1 LTR promoter (pLTR-luc), or the HTLV-1 LTR promoter (pLTR(HTLV)-luc). After transfection, cells were treated with different compound concentrations, and activity quantification was performed 48 h later by determining luciferase activity in cell lysates as described[7],[21],[22].

[6] = 10 mM sodium phosphate pH 6.6, 0.1 mM EDTA, read-out: Kd (TARh), one-site or first-site Kd1
[7] = higher ionic strength, 10 mM HEPES pH 7.5, 200 mM KCl, 2 mM MgCl2
[8] = higher ionic strength, 10 mM HEPES pH 7.5, 200 mM KCl, 2 mM MgCl2, read-out: Kd (TARh), Table S2

## COc1cc(CCN)c(-c2cc(C)c(-c3cc(CCN)c(OC)cc3CCN)cc2C)cc1CCN [Compound 1a]
[1]; [6]
  Kd: 12 µM
[1]; [7]
  Kd(TARh)/Kd(IIBh), Table S2: 3.0
[1]; [8]
  Kd: 13 µM
[1]
  Kd(TARh)/Kd(IIBh): 12
[2]
  Kd: 0.5 µM
[3]
  diminished levels of early viral DNA sequences: 25%
[4]
  association to LTRc (EMSA): associated to LTRc at low μM concentrations
[5]
  EC50: 16.7 µM

## Cc1cc(-c2cc(CCN)ccc2CCN)c(C)cc1-c1cc(CCN)ccc1CCN [Compound 1d]
[1]; [6]
  Kd: 22 µM
[1]; 10 mM sodium phosphate pH 6.6, 0.1 mM EDTA, two-site model, read-out: Kd (TARh), second-site Kd2 (in brackets)
  Kd: 22 µM
[1]; [7]
  Kd(TARh)/Kd(IIBh), Table S2: 4.3
[1]; [8]
  Kd: 32 µM
[1]
  Kd(TARh)/Kd(IIBh): 25
[4]
  association to LTRc (EMSA): associated to LTRc at low μM concentrations
[5]
  EC50: 24.9 µM

## Cc1cc(-c2cc(CCN)ccc2CCN)c(C)cc1-c1cccc(CCN)c1 [Compound 3c]
[1]; [6]
  Kd: 78 µM
[1]; [8]
  Kd: > 50 µM
[1]
  Kd(TARh)/Kd(IIBh): 12
[3]
  diminished levels of early viral DNA sequences: 25%
[4]
  association to LTRc (EMSA): associated only very weakly
[5]
  EC50: 16.4 µM
